{"source": "patent US20210401776A1", "about": "“METHOD OF TREATING […] SYNDROMES USING FENFLURAMINE ENANTIOMERS” (ZOGENIX INTERNATIONAL LIMITED, priority 2018, published 2021)", "key": {"6-Hz seizures": {"system": "6-Hz seizures", "test": "acute mouse 6-Hz model (FIG. 9)", "type": "in vivo, NMRI mice", "method": "FIG. 9 includes two graphs that summarize the effects of racemic fenfluramine (abbreviated herein as “FA,” “FFA” or “FEN”) treatment in 6-Hz mice, as described in Example 2. FIG. 9A is a bar graph showing the percentage of animals protected for mice treated with vehicle, with […], and with 5 mg/kg FA. […] Protection being defined as the absence of a seizure within the expected time frame (i.e. below the minimum seizure duration in VHC treated mice).\nRapid screening of possible anticonvulsants can be performed by using acute (instead of chronic) animal models of drug-resistant seizures. […] In addition to the protocol using 44 mA pulses, more “lenient” versions of the model using 22 mA or 32 mA currents are sometimes employed."}, "[1]": {"system": "Generalized tonic-clonic seizures", "test": "acute maximal electroshock (MES) test", "type": "in vivo, male CF-1 mice", "method": "(§1) The antiseizure effects of racemic fenfluramine were assessed in three mouse models of acute and chronic seizures in naïve male CF-1 mice (Envigo (Indianapolis, Ind., USA); 18-35 g): 1) the acute maximal electroshock (MES) test; 2) the acute 44 mA 6 Hz test; and 3) the chronic corneal kindled mouse (CKM) model.\n(§2) Methods: Testing progressed in three phases: identification, time course, and dose response. In the identification phase, mice were administered FFA (3, 10, 30 mg/kg, ip), vehicle, or retigabine (positive control, 20 or 50 mg/kg, ip) 0.5 or 2 hr before testing (n=4/group). […] Dose-dependent anticonvulsant activity of FFA was assessed by testing between 0.25 and 120 mg/kg (n=8/dose). The effect of FFA on mild motor impairment (MMI) in the fixed-speed rotarod (FSR) was assessed prior to the MES, 44 mA 6 Hz, and CKM tests."}, "dizocilpine-treated mice [2]": {"system": "dizocilpine-treated mice", "test": "step-through passive avoidance, dizocilpine-induced amnesia model", "type": "in vivo, Male Swiss OF-1 mice"}, "[3]": {"test": "fixed-speed rotarod, minimal motor impairment (MMI)", "type": "in vivo, male CF-1 mice", "method": "as §2"}, "dizocilpine-treated mice [4]": {"system": "dizocilpine-treated mice", "test": "spontaneous alternation in the Y-maze, dizocilpine-induced amnesia model", "type": "in vivo, Male Swiss OF-1 mice"}, "dizocilpine-treated mice [5]": {"system": "dizocilpine-treated mice", "test": "dizocilpine-induced learning deficits, statements covering both tests (Y-maze and passive avoidance)", "type": "in vivo, Male Swiss OF-1 mice", "conditions": "mouse, in vivo", "method": "Experiments were conducted to determine the dose-response effects of fenfluramine (FEN) and norfenfluramine (NOR), racemate and (+)- and (−)-isomers, in an in vivo mouse model; the dizocilpine-induced amnesia model (described below) is used to test responses to drugs acting at the sigma-1 receptor (S1R) (Maurice et al., 1994a,b; Maurice, et al., 1998, Neuroscience 83:413-428).\nThe drugs were administered intraperitoneally (“ip” or “IP”) with dizocilpine (0.15 mg/kg) and tested in the spontaneous alternation test on day 1 and in the passive avoidance test on days 2-3.\nThe apparatus consisted of a 2-compartment box, with one illuminated with white polyvinylchloride (PVC) walls and a transparent cover (15×20×15 cm high), one with black polyvinylchloride walls and cover (15×20×15 cm high), and a grid floor. A guillotine door separated each compartment. A 60 W lamp was positioned 40 cm above the apparatus lit the white compartment during the experimental period. Scrambled foot shocks (0.3 mA for 3 s) were delivered to the grid floor using a shock generator scrambler (Lafayette Instruments, Lafayette, Mass., USA). The guillotine door was initially closed during the training session. Each mouse was placed into the white compartment. After 5 s, the door was raised. When the mouse entered the darkened compartment and placed all its paws on the grid floor, the door was gently closed and the 3-scrambled foot shock was delivered for 3 s. The step-through latency, i.e., the latency spent to enter the dark compartment, and the level of sensitivity to the shock were recorded. The latter was evaluated as: 0=no sign; 1=flinching reactions; 2=flinching and vocalization reactions. The retention test was carried out 24 h after training. Each mouse was placed again into the white compartment. After 5 s, the door was raised. The step-through latency was recorded up to 300 s. Animals entered the darkened compartment or were gently pushed into it and the escape latency, i.e., the time spent to return into the white compartment, was also measured up to 300 s. Results were expressed as median and interquartile (25%-75%) range.\nThe Y-maze is made of grey PVC. Each arm is 40 cm long, 13 cm high, 3 cm wide at the bottom, 10 cm wide at the top, and converged at an equal angle. Each mouse was placed at the end of one arm and allowed to move freely through the maze during an 8-min session. The series of arm entries, including possible returns into the same arm, were checked visually. An alternation was defined as entries into all three arms on consecutive occasions. The number of maximum alternations was therefore the total number of arm entries minus two and the percentage of alternation was calculated as: actual alternations/maximum alternations)×100. Parameters included the percentage of alternation (memory index) and total number of arm entries (exploration index)."}, "[6]": {"system": "secondarily generalized focal seizures", "test": "acute 44 mA 6 Hz test", "type": "in vivo, male CF-1 mice", "method": "as §1, §2"}, "corneal kindled mouse": {"system": "corneal kindled mouse", "test": "chronic corneal kindled mouse (CKM) model", "type": "in vivo, male CF-1 mice", "method": "as §1, §2"}}}
{"smiles": "CCNC(C)Cc1cccc(C(F)(F)F)c1", "note": "(racemic) [Fenfluramine, (RS)—N-ethyl-1-[3-(trifluoromethyl)phenyl]propan-2-amine]", "values": [{"measurement": "number of mice having seizures and duration of seizures", "setting": "6-Hz seizures; 20 and 5 mg/kg (FIG. 9)", "result": "dose-dependent decrease"}, {"measurement": "seizures in the mouse 6-Hz model", "setting": "6-Hz seizures; Mann-Whitney p<0.05 vs. VHC", "result": "significantly reduced seizures"}, {"measurement": "period of post-seizure aggression", "setting": "6-Hz seizures; vehicle mice displayed it", "result": "did not"}, {"measurement": "protection", "setting": "[1]; 0.5 hours, 3 mg/kg ip", "result": 0, "unit": "%"}, {"measurement": "protection", "setting": "[1]; 0.5 hours, 10 mg/kg ip", "result": 0, "unit": "%"}, {"measurement": "protection", "setting": "[1]; 0.5 hours, 30 mg/kg ip", "result": 100, "unit": "%"}, {"measurement": "protection", "setting": "[1]; 2.0 hours, 3 mg/kg ip", "result": 75, "unit": "%"}, {"measurement": "protection", "setting": "[1]; 2.0 hours, 10 mg/kg ip", "result": 50, "unit": "%"}, {"measurement": "protection", "setting": "[1]; 2.0 hours, 30 mg/kg ip", "result": 100, "unit": "%"}, {"measurement": "protection, time course at last time point", "setting": "[1]; 4 hours post dosing", "result": "100% protection at 4 hours post dosing"}, {"measurement": "ED50", "setting": "[1]; Mus musculus, MES, Probit regression, 95% CI 1.4 to 5.1 mg/kg", "result": 2.9, "unit": "mg/kg"}, {"measurement": "anticonvulsant effect in the MES model", "setting": "[1]; acute administration", "result": "substantial anticonvulsant effect"}, {"measurement": "PP (%)", "setting": "dizocilpine-treated mice [2]; Table 2 StepThrough/Passive Avoidance, drug alone 0.1 mg/kg IP", "result": "11.0 ± 11.6", "unit": "%"}, {"measurement": "PP (%)", "setting": "dizocilpine-treated mice [2]; Table 2 StepThrough/Passive Avoidance, drug alone 0.3 mg/kg IP", "result": "55.7 ± 10.5", "unit": "%"}, {"measurement": "PP (%)", "setting": "dizocilpine-treated mice [2]; Table 2 StepThrough/Passive Avoidance, drug alone 1 mg/kg IP", "result": "40.8 ± 13.0 ^4%"}, {"measurement": "PP (%)", "setting": "dizocilpine-treated mice [2]; Table 5 STPA, drug alone 0.1 mg/kg ip", "result": "11.2 + 12.0%"}, {"measurement": "PP (%)", "setting": "dizocilpine-treated mice [2]; Table 5 STPA, drug alone 0.3 mg/kg ip", "result": "65.5 ± 12.1^5%"}, {"measurement": "PP (%)", "setting": "dizocilpine-treated mice [2]; Table 6 STPA, drug alone 0.1 mg/kg ip", "result": "16.8 ± 14.2", "unit": "%"}, {"measurement": "PP (%)", "setting": "dizocilpine-treated mice [2]; Table 6 STPA, drug alone 0.3 mg/kg ip", "result": "60.1 ± 13.9 ^5%"}, {"measurement": "Impairment", "setting": "[3]; 6 Hz 44 mA section, 30 mg/kg at 0.25, 0.50, 1.00 and 2.00 hours", "result": "Some impairment found at a dose of 30 mg/kg at timepoints of 0.25, 0.50, 1.00, and"}, {"measurement": "Impairment", "setting": "[3]; 6 Hz 44 mA section, 4 hours", "result": "no impairment"}, {"measurement": "Impairment", "setting": "[3]; at doses used in the MES model", "result": "No impairment on rotarod at doses used in this model"}, {"measurement": "TD50", "setting": "[3]; male, CF-1, mouse, in vivo, intraperitoneal, reported under 6 Hz 44 mA, 95% CI 25.3 to 53.0", "result": 34.6, "unit": "mg/kg"}, {"measurement": "PP (%)", "setting": "dizocilpine-treated mice [4]; Table 2 Y-Maze, drug alone 0.1 mg/kg IP", "result": "1.3 ± 7.9", "unit": "%"}, {"measurement": "PP (%)", "setting": "dizocilpine-treated mice [4]; Table 2 Y-Maze, drug alone 0.3 mg/kg IP", "result": "37.9 ± 9.4", "unit": "%"}, {"measurement": "PP (%)", "setting": "dizocilpine-treated mice [4]; Table 2 Y-Maze, drug alone 1 mg/kg IP", "result": "59.8 ± 6.1 ^2%"}, {"measurement": "PP (%)", "setting": "dizocilpine-treated mice [4]; Table 5 YMT, drug alone 0.1 mg/kg ip", "result": "4.4 ± 7.7", "unit": "%"}, {"measurement": "PP (%)", "setting": "dizocilpine-treated mice [4]; Table 5 YMT, drug alone 0.3 mg/kg ip", "result": "33.6 ± 5.7^2%"}, {"measurement": "PP (%)", "setting": "dizocilpine-treated mice [4]; Table 6 YMT, drug alone 0.1 mg/kg ip", "result": "-9.81 ± 7.6^ %"}, {"measurement": "PP (%)", "setting": "dizocilpine-treated mice [4]; Table 6 YMT, drug alone 0.3 mg/kg ip", "result": "26.6 ± 9.8 ^2%"}, {"measurement": "behavior in vivo at S1R", "setting": "dizocilpine-treated mice [5]", "result": "behaved in vivo as S1R positive modulators"}, {"measurement": "protection", "setting": "[6]; 4 hours", "result": "no protection"}, {"measurement": "ED50", "setting": "[6]; Mus musculus, 6 Hz 44 mA, 95% CI 31.9 to 66.7 mg/kg", "result": 47, "unit": "mg/kg"}, {"measurement": "activity in a model of focal seizures that secondarily generalize", "setting": "[6]; mouse, in vivo", "result": "some activity"}, {"measurement": "mice died", "setting": "corneal kindled mouse; 90 mg/kg", "result": "2 of 8"}, {"measurement": "mice died", "setting": "corneal kindled mouse; 120 mg/kg", "result": "6 of 8"}, {"measurement": "anticonvulsant activity", "setting": "corneal kindled mouse; all doses tested", "result": "Minimal anticonvulsant activity at all doses tested"}]}
